In PMC10388696 (Clinical cancer research : an official journal of the …, 2023):

How the values were obtained:
[1] = test system: cancer cell proliferation; conditions: in vitro; cited from earlier work
advanced solid tumors = experiment: Tumor response by RECIST 1.1; format: in vivo, human; conditions: monotherapy Part A, 20 mg, one patient with peritoneal mesothelioma
[2] = Clinical plasma pharmacokinetics; conditions: human, in vivo
[3] = Safety: treatment-related AEs and DLTs; format: in vivo
[4] = across preclinical species; cited from earlier work
PI3K-γ = conditions: cited from earlier work
[5] = QT interval corrected with Fridericia's method; format: in vivo, human; conditions: any dose level (data not shown)
[6] = test system: multiple syngeneic models; conditions: in vivo; cited from earlier work
T-cell activation = conditions: in vitro; cited from earlier work

**Q.** For `C[C@H](NC(=O)c1c(N)nn2cccnc12)c1cc2cccc(C#Cc3cnn(C)c3)c2c(=O)n1-c1ccccc1` [Eganelisib], which “direct effect on cancer cell proliferation” value [1] is on record?
**A.** […]

**Q.** What about the half-life ([2]; 10 mg, terminal t1/2) of the same molecule?
**A.** 10.6 to 23.6 h

**Q.** What about the half-life ([2]; 10 mg, terminal t1/2, geometric mean) of the same molecule?
**A.** 39.8 h

**Q.** And the “dose proportionality of exposure (Cmax and AUC)” value ([2]; 60 mg)?
**A.** approximately dose proportional

**Q.** And the half-life ([2]; effective t1/2 calculated from the AR estimate)?
**A.** 9.3 to 25.7 h

**Q.** What about the Tmax ([2]; po) of the same molecule?
**A.** 1 to 6 h

**Q.** What about the half-life ([2]; t1/2) of the same molecule?
**A.** 10.6 to 39.8 h

**Q.** And the “ALT increased, treatment-related, any grade” value ([3]; human, in vivo)?
**A.** 3 (16%) n (%)

**Q.** What about the “AST increased, treatment-related, any grade” value ([3]; human, in vivo) of the same molecule?
**A.** 4 (21%) n (%)

**Q.** What about the “Fatigue, treatment-related, any grade” value ([3]; human, in vivo) of the same molecule?
**A.** 2 (11%) n (%)

**Q.** And the “Grade ≥3 treatment-related AEs” value ([3]; human, in vivo)?
**A.** 2 (11%) n (%)

**Q.** And the “Headache, treatment-related, any grade” value ([3]; human, in vivo)?
**A.** 2 (11%) n (%)

**Q.** And the “Rash, treatment-related, any grade” value ([3]; human, in vivo)?
**A.** 3 (16%) n (%)

**Q.** What about the “hepatic AEs” value ([3]; human, in vivo) of the same molecule?
**A.** 33%

**Q.** What about the “increased ALT, treatment-related grade ≥3” value ([3]; human, in vivo) of the same molecule?
**A.** 18%

**Q.** What about the “increased AST, treatment-related grade ≥3” value ([3]; human, in vivo) of the same molecule?
**A.** 18%

**Q.** What about the “increased alkaline phosphatase, treatment-related grade ≥3” value ([3]; human, in vivo) of the same molecule?
**A.** 5%

**Q.** And the “patients who discontinued for a treatment-related AE” value ([3]; human, in vivo)?
**A.** 8%

**Q.** And the “patients with dose reduction for a treatment-related AE” value ([3]; human, in vivo)?
**A.** 3%

**Q.** What about the “treatment-related SAEs” value ([3]; human, in vivo) of the same molecule?
**A.** 2 (5%) n (%)

**Q.** And the “treatment-related serious adverse events” value ([3]; human, in vivo)?
**A.** 5%

**Q.** And the “grade 5 treatment-related AEs” value ([3]; monotherapy)?
**A.** no grade 5 treatment-related AEs

**Q.** And the MTD ([3]; monotherapy, 10–60 mg QD)?
**A.** no dose of eganelisib monotherapy met MTD criteria

**Q.** What about the oral bioavailability [4] of the same molecule?
**A.** ≥ 31%

**Q.** What about the “effects on QTcF” value [5] of the same molecule?
**A.** No clinically relevant effects

**Q.** What about the “tumor growth in syngeneic models” value [6] of the same molecule?
**A.** tumor growth delay

**Q.** What about the “direct effect on T-cell activation” value (T-cell activation) of the same molecule?
**A.** no direct effect
